The target of experiment [1] is human orexin-2 receptor (Homo sapiens (Human), UniProt O43614). In words: In vitro assay: intracellular calcium measurements (FLIPR), antagonistic activity. Type of experiment: cell-based. The note with it: CHO cells expressing human orexin-2 receptor, orexin-A agonist, geometric mean, read-out: IC50 Ox2. The essentials:
(§1)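 hOX1R/hOX2R CHO cells, fluo-4 AM + 5 mM probenecid, 50 min 37 °C then 30 min RT. Cpd 120 min, then orexin-A 3 nM final; FLIPR peak height vs vehicle. IC50, geometric mean of repeats.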
Background: Calcium flux is commonly read through the fluorescence of an indicator in the cells.

Experiment [2] has as its target human orexin-1 receptor (Homo sapiens (Human), UniProt O43613). Described as above. The class given is cell-based. The note with it: CHO cells expressing human orexin-1 receptor, orexin-A agonist, geometric mean, read-out: IC50 Ox1. The essentials:
as §1

The term IC50 denotes the midpoint of a concentration-inhibition curve.

Chain of human orexin-2 receptor (O43614 whole entry): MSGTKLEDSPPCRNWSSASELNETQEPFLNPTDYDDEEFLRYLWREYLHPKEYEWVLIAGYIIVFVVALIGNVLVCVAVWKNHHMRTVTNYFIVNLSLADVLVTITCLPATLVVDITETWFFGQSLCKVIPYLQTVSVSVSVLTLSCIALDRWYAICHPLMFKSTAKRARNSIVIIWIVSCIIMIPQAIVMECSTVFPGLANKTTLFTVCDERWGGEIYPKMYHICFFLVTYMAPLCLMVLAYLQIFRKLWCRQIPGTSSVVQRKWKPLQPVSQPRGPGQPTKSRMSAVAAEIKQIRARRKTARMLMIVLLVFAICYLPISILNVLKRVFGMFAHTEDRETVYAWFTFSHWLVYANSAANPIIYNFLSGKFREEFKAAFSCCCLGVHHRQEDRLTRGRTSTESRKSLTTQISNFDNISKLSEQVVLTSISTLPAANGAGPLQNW
Chain of human orexin-1 receptor (O43613 whole entry): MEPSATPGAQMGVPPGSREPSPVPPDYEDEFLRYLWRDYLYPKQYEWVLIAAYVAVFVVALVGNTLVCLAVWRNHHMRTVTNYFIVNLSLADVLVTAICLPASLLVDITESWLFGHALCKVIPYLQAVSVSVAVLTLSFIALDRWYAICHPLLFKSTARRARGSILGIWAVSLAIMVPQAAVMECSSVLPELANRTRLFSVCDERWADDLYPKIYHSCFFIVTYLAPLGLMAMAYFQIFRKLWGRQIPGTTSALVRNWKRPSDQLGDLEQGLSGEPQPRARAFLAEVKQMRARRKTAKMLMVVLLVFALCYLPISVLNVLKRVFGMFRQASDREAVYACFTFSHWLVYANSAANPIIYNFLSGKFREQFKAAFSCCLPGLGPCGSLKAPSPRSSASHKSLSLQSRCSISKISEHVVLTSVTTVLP

As for `Cc1cccc(-c2sc(C)nc2C(=O)N2CC[C@H](C)[C@H]2c2nc3cc(C(F)(F)F)ccc3[nH]2)c1` [Ex. 4.138], the IC50 is 1340 nM in experiment [1] and 2 nM in experiment [2].

For the molecule `Cc1nc(C(=O)N2CC[C@H](C)[C@H]2c2nc3cc(C(F)(F)F)ccc3[nH]2)c(-c2ccc(Cl)cc2)s1` [Ex. 4.139], the IC50 in experiment [1] worked out at 2260 nM; in experiment [2] it was 5 nM.

In the case of `Cc1ccc(-c2sc(C)nc2C(=O)N2CC[C@H](C)[C@H]2c2nc3cc(C(F)(F)F)ccc3[nH]2)cc1` [Ex. 4.140], the 50% inhibitory concentration (IC50) in experiment [1] turned out to be 2170 nM; in experiment [2], 7 nM.

`COc1ccc(-c2sc(C)nc2C(=O)N2CC[C@H](C)[C@H]2c2nc3cc(C(F)(F)F)ccc3[nH]2)cc1` [Ex. 4.141]: the half-maximal inhibitory concentration (IC50) in experiment [1] came to 2760 nM; in experiment [2], 5 nM.

`Cc1nc(C(=O)N2CC[C@H](C)[C@H]2c2nc3cc(C(F)(F)F)ccc3[nH]2)c(-c2ccc(Br)cc2)s1` [Ex. 4.142]: the IC50 worked out at 2160 nM in experiment [1] and 6 nM in experiment [2].

On to `Cc1nc(C(=O)N2CC[C@H](C)[C@H]2c2nc3cc(C(F)(F)F)ccc3[nH]2)c(-c2ccc(F)c(F)c2)s1` [Ex. 4.143], for which the values for the IC50 in experiment [1] and in experiment [2] were 3680 nM and 24 nM, respectively.

`Cc1ccc(-c2sccc2C(=O)N2CC[C@H](C)[C@H]2c2nc3cc(C(F)(F)F)ccc3[nH]2)cc1C` [Ex. 4.144]: the concentration for half-maximal inhibition (IC50) in experiment [1] is 463 nM; in experiment [2] it was 9 nM.

Consider `Cc1nc(C(=O)N2CC[C@H](C)[C@H]2c2nc3cc(C(F)(F)F)ccc3[nH]2)c(-c2ccccc2Cl)s1` [Ex. 4.146], for which the values for the 50% inhibitory concentration (IC50) in experiment [1] and in experiment [2] were 2110 nM and 6 nM, respectively.

With `COc1ccccc1-c1sc(C)nc1C(=O)N1CC[C@H](C)[C@H]1c1nc2cc(C(F)(F)F)ccc2[nH]1` [Ex. 4.147], the half-maximal inhibitory concentration (IC50) in experiment [1] was found to be 9650 nM; in experiment [2], 13 nM.

Take `Cc1nc(C(=O)N2CC[C@H](C)[C@H]2c2nc3cc(C(F)(F)F)ccc3[nH]2)c(-c2cc(F)cc(F)c2)s1` [Ex. 4.148]: the IC50 in experiment [1] worked out at 3180 nM; in experiment [2] it was 7 nM.

For `Cc1nc(C(=O)N2CC[C@H](C)[C@H]2c2nc3c(C(F)(F)F)cccc3[nH]2)c(-c2ccc(F)cc2)s1` [Ex. 4.149], the IC50 in experiment [1] was 752 nM; in experiment [2], 14 nM.

Take `Cc1nc(C(=O)N2CC[C@H](C)[C@H]2c2nc3c(C(F)(F)F)cccc3[nH]2)c(-c2ccc(Cl)cc2)s1` [Ex. 4.150]: the IC50 in experiment [1] came to 180 nM; in experiment [2] it was 6 nM.

As to `Cc1nc(C(=O)N2CC[C@H](C)[C@H]2c2nc3c(C(F)(F)F)cccc3[nH]2)c(-c2ccc(Br)cc2)s1` [Ex. 4.151], the 50% inhibitory concentration (IC50) was determined as 185 nM in experiment [1] and 5 nM in experiment [2].

In the case of `Cc1nc(C(=O)N2CC[C@H](C)[C@H]2c2nc3c(C(F)(F)F)cccc3[nH]2)c(-c2ccc(C)c(C)c2)s1` [Ex. 4.152], the IC50 was found to be 40 nM in experiment [1] and 2 nM in experiment [2].

Take `Cc1nc(C(=O)N2CC[C@H](C)[C@H]2c2nc3c(C(F)(F)F)cccc3[nH]2)c(-c2ccc(F)c(F)c2)s1` [Ex. 4.154]: the figures for the half-inhibitory concentration (IC50) in experiment [1] and in experiment [2] were 4800 nM and 26 nM, respectively.

Take `Cc1nc(C(=O)N2CC[C@H](C)[C@H]2c2nc3c(C(F)(F)F)cccc3[nH]2)c(-c2ccccc2Cl)s1` [Ex. 4.155]: the half-maximal inhibitory concentration (IC50) in experiment [1] worked out at 891 nM; in experiment [2], 42 nM.

Take `COc1ccccc1-c1sc(C)nc1C(=O)N1CC[C@H](C)[C@H]1c1nc2c(C(F)(F)F)cccc2[nH]1` [Ex. 4.156]: the IC50 in experiment [1] was found to be 489 nM; in experiment [2], 14 nM.

As to `Cc1nc(C(=O)N2CC[C@H](C)[C@H]2c2nc3c(C(F)(F)F)cccc3[nH]2)c(-c2cc(F)cc(F)c2)s1` [Ex. 4.157], the 50% inhibitory concentration (IC50) in experiment [1] came to 1710 nM; in experiment [2], 13 nM.

With `Cc1cccc(-c2sc(C)nc2C(=O)N2CC[C@H](C)[C@H]2c2nc3c(C(F)(F)F)cccc3[nH]2)c1` [Ex. 4.158], the 50% inhibitory concentration (IC50) in experiment [1] was determined as 308 nM; in experiment [2], 2 nM.

`COc1ccc(-c2sc(C)nc2C(=O)N2CC[C@H](C)[C@H]2c2nc3c(C(F)(F)F)cccc3[nH]2)cc1` [Ex. 4.159]: the values for the 50% inhibitory concentration (IC50) in experiment [1] and in experiment [2] were 215 nM and 4 nM, respectively.

As to `Cc1ccc(-c2sccc2C(=O)N2CC[C@H](C)[C@H]2c2nc3c(C(F)(F)F)cccc3[nH]2)cc1C` [Ex. 4.160], the figures for the half-maximal inhibitory concentration (IC50) in experiment [1] and in experiment [2] were 27 nM and 2 nM, respectively.

Take `Cc1ccc(-c2ccccn2)c(C(=O)N2CC[C@H](C)[C@H]2c2nc3c(C)c(Cl)ccc3[nH]2)c1` [Ex. 4.161]: the IC50 in experiment [1] stood at 191 nM; in experiment [2], 2 nM.

Consider `Cc1c(Cl)ccc2[nH]c([C@@H]3[C@@H](C)CCN3C(=O)c3cc(Cl)ccc3-c3ccccc3)nc12` [Ex. 4.162], for which the half-inhibitory concentration (IC50) in experiment [1] stood at 299 nM; in experiment [2] it was 2 nM.

With `Cc1ccc(-c2cccnc2)c(C(=O)N2CC[C@H](C)[C@H]2c2nc3c(C)c(Cl)ccc3[nH]2)c1` [Ex. 4.163], the IC50 in experiment [1] turned out to be 4400 nM; in experiment [2] it was 20 nM.

For `Cc1c(Cl)ccc2[nH]c([C@@H]3[C@@H](C)CCN3C(=O)c3cc(F)ccc3-c3ccccc3)nc12` [Ex. 4.164], the IC50 in experiment [1] was determined as 725 nM; in experiment [2], 7 nM.

For `Cc1c(Cl)ccc2[nH]c([C@@H]3[C@@H](C)CCN3C(=O)c3cc(F)ccc3-c3ccccn3)nc12` [Ex. 4.165], the IC50 in experiment [1] is 968 nM; in experiment [2], 20 nM.

For `Cc1c(Cl)ccc2[nH]c([C@@H]3[C@@H](C)CCN3C(=O)c3cc(C#N)ccc3-c3ccccc3)nc12` [Ex. 4.166], the IC50 in experiment [1] stood at 568 nM; in experiment [2], 2 nM.

Take `Cc1ccc(C(=O)N2CC[C@H](C)[C@H]2c2nc3c(C)c(Cl)ccc3[nH]2)c(-c2ccccn2)c1` [Ex. 4.167]: the values for the IC50 in experiment [1] and in experiment [2] were 144 nM and 13 nM, respectively.

`Cc1ccc(C(=O)N2CC[C@H](C)[C@H]2c2nc3c(C)c(Cl)ccc3[nH]2)c(-c2ccccc2)c1` [Ex. 4.168]: the values for the IC50 in experiment [1] and in experiment [2] were 486 nM and 10 nM, respectively.

Regarding `Cc1c(Cl)ccc2[nH]c([C@@H]3[C@@H](C)CCN3C(=O)c3c(F)cccc3-c3ccccc3)nc12` [Ex. 4.169], the IC50 in experiment [1] is 892 nM; in experiment [2] it was 4 nM.

For the molecule `Cc1c(Cl)ccc2[nH]c([C@@H]3[C@@H](C)CCN3C(=O)c3cc(C(F)(F)F)ccc3-c3ccccc3)nc12` [Ex. 4.170], the half-maximal inhibitory concentration (IC50) in experiment [1] is 1430 nM; in experiment [2] it was 11 nM.

Take `Cc1ccc(-c2ccccc2)c(C(=O)N2CC[C@H](C)[C@H]2c2nc3c(C)c(Cl)ccc3[nH]2)c1F` [Ex. 4.171]: the values for the IC50 in experiment [1] and in experiment [2] were 571 nM and 1.5 nM, respectively.

For the molecule `Cc1ccc(-c2ccccc2)c(C(=O)N2CC[C@H](C)[C@H]2c2nc3c(C)c(Cl)ccc3[nH]2)c1` [Ex. 4.172], the values for the half-maximal inhibitory concentration (IC50) in experiment [1] and in experiment [2] were 457 nM and 2 nM, respectively.

As to `Cc1ccc(-c2cccnc2)c(C(=O)N2CC[C@H](C)[C@H]2c2nc3c(C)c(Cl)ccc3[nH]2)c1F` [Ex. 4.173], the figures for the IC50 in experiment [1] and in experiment [2] were 6330 nM and 13 nM, respectively.

As to `Cc1ccc(C(=O)N2CC[C@H](C)[C@H]2c2nc3c(C)c(Cl)ccc3[nH]2)c(-c2ncccn2)c1` [Ex. 4.174], the IC50 in experiment [1] came out at 132 nM; in experiment [2], 12 nM.

Regarding `Cc1c(Cl)ccc2[nH]c([C@@H]3[C@@H](C)CCN3C(=O)c3cc(F)ccc3-c3ncccn3)nc12` [Ex. 4.175], the IC50 in experiment [1] turned out to be 249 nM; in experiment [2], 14 nM.

Consider `Cc1ccc(-c2ncccn2)c(C(=O)N2CC[C@H](C)[C@H]2c2nc3c(C)c(Cl)ccc3[nH]2)c1F` [Ex. 4.176], for which the IC50 in experiment [1] came to 1070 nM; in experiment [2] it was 15 nM.

Turning to `Cc1c(Cl)ccc2[nH]c([C@@H]3[C@@H](C)CCN3C(=O)c3c(F)cccc3-c3ncccn3)nc12` [Ex. 4.177], the half-inhibitory concentration (IC50) was 219 nM in experiment [1] and 9 nM in experiment [2].

Take `Cc1ccc(-c2ncccn2)c(C(=O)N2CC[C@H](C)[C@H]2c2nc3c(C)c(Cl)ccc3[nH]2)c1` [Ex. 4.178]: the IC50 turned out to be 350 nM in experiment [1] and 7 nM in experiment [2].

As to `COc1cc2nc([C@@H]3[C@@H](C)CCN3C(=O)c3cc(C)ccc3-c3ncccn3)[nH]c2cc1OC` [Ex. 4.179], the IC50 in experiment [1] is 69 nM; in experiment [2] it was 27 nM.

For `Cc1ccc(-c2ncccn2)c(C(=O)N2CC[C@H](C)[C@H]2c2nc3cc(Cl)c(C)cc3[nH]2)c1` [Ex. 4.180], the half-inhibitory concentration (IC50) in experiment [1] stood at 304 nM; in experiment [2], 8 nM.

As to `Cc1ccc(-c2ncccn2)c(C(=O)N2CC[C@H](C)[C@H]2c2nc3ccc(Cl)c(C)c3[nH]2)c1` [Ex. 4.181], the IC50 was 230 nM in experiment [1] and 3 nM in experiment [2].

For the molecule `Cc1ccc(-c2ncccn2)c(C(=O)N2CC[C@H](C)[C@H]2c2nc3cc(Cl)cc(C)c3[nH]2)c1` [Ex. 4.182], the half-inhibitory concentration (IC50) in experiment [1] was found to be 694 nM; in experiment [2] it was 7 nM.

`Cc1ccc(-c2ncccn2)c(C(=O)N2CC[C@H](C)[C@H]2c2nc3cc(C)c(C)cc3[nH]2)c1` [Ex. 4.183]: the IC50 in experiment [1] worked out at 2260 nM; in experiment [2], 93 nM.

`Cc1ccc(-n2nccn2)c(C(=O)N2CCC[C@@]2(C)c2nc3c(C)c(Cl)ccc3[nH]2)c1` [Ex. 5.2]: the IC50 in experiment [1] was 5 nM; in experiment [2], 2 nM.

`Cc1nc(C(=O)N2CCC[C@@]2(C)c2nc3c(C)c(Cl)ccc3[nH]2)c(-c2ccccc2)s1` [Ex. 5.3]: the IC50 in experiment [1] is 4 nM; in experiment [2] it was 2 nM.

In the case of `Cc1nc(C(=O)N2CCC[C@@]2(C)c2nc3c(C)cccc3[nH]2)c(-c2cccc(Cl)c2)s1` [Ex. 5.4], the values for the IC50 in experiment [1] and in experiment [2] were 6 nM and 10 nM, respectively.

As for `Cc1nc(C(=O)N2CCC[C@@]2(C)c2nc3c(C)c(Cl)ccc3[nH]2)c(-c2cccc(Cl)c2)s1` [Ex. 5.5], the values for the IC50 in experiment [1] and in experiment [2] were 5 nM and 3 nM, respectively.

On to `Cc1ccc(-n2nccn2)c(C(=O)N2CCC[C@@]2(C)c2nc3c(C)cccc3[nH]2)c1` [Ex. 5.6], for which the IC50 turned out to be 59 nM in experiment [1] and 32 nM in experiment [2].

The values above are taken from patent US9732075B2, “Benzimidazole-proline derivatives” (IDORSIA PHARMACEUTICALS LTD, priority 2012, dated 2017).
